Results: US9067937B2 (priority 2012, dated 2015)
Where “and” joins values, the source holds several entries; their conditions need not be identical. Equal values may be shown once. Where a name gives a salt, the structure may show the parent alone. Read-outs that look alike come from different tables or passages of the source.

Experiments:
22Rv1 cells = test: Cell-based assay, anti-proliferative activity (Cell Counting Kit-8, 72 hours); parameters: species or system human
Method in brief: (§1)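 Cells seeded at 2,000–3,000 cells/well and exposed to candidate MELK inhibitors for 72 hours; growth measured with Cell Counting Kit-8. IC50 values calculated from the growth read-out.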

A549 cells = test: as above; parameters: species or system human
Method in brief: as §1

DU4475 cells = test: as above; parameters: species or system human
Method in brief: as §1

T47D cells = test: as above; parameters: species or system human
Method in brief: as §1

HT1197 cells = test: Cell-based assay, anti-proliferative activity, MELK-negative control (Cell Counting Kit-8, 72 hours); parameters: species or system human
Method: 100 micro-L of cell suspension was seeded onto 96-well microtiter plate (ViewPlate-96FTC, PerkinElmer). The initial cell concentration of 22Rv1, T47D, A549, DU4475, and HT1197 were 3,000 cells/well, 2,000 cells/well and 2,500 cells/well, respectively. Cellular growth was determined using Cell Counting Kit-8 (DOJINDO) at 72 hours after the exposure of the candidate inhibitors. […] Accurate IC50 values were calculated as described previously.

MDA-MB-231 xenografts = test: Xenograft model antitumor assay; parameters: species or system mice; conditions: mouse, in vivo; dihydrochloride
DU145 xenografts = test: Xenograft model antitumor assay; parameters: species or system mice; conditions: mouse, in vivo
MIAPaCa-2 xenografts = test: Xenograft model antitumor assay; parameters: species or system mice; conditions: mouse, in vivo
PC-14 xenografts = test: Xenograft model antitumor assay (MELK-negative); format: in vivo, mice; conditions: PC-14 (MELK hardly detectable), 10 mg/kg oral once a day, 14 days
MELK = MELK (Homo sapiens, UniProt Q14680); test: Kinase assay (IMAP fluorescence polarization, FITC-labeled histone H3 peptide); format: biochemical; conditions: 50 micro-M ATP
Chain of MELK (Q14680 whole entry, looked up): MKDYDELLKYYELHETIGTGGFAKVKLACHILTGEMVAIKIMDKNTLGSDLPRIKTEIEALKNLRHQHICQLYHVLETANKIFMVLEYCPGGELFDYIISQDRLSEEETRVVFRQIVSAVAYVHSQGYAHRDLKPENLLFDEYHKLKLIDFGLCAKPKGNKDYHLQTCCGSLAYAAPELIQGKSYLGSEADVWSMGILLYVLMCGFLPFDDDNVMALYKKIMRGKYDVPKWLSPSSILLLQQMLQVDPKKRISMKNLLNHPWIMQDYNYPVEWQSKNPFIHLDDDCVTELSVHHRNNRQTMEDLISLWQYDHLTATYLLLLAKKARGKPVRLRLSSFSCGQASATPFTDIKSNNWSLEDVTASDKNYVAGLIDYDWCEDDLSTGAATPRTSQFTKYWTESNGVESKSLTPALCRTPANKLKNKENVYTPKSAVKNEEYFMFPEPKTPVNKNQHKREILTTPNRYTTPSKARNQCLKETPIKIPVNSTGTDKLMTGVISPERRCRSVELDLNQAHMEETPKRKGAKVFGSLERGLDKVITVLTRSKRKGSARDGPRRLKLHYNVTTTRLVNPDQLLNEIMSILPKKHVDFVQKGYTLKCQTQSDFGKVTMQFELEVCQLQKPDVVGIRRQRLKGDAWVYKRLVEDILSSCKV
Method in brief: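 Kinase (0.8 ng/μL) reacted with 100 nM FITC-histone H3 peptide and 50 μM ATP in 20 mM HEPES, 0.3 mM MgCl2, 2 mM DTT, 0.01% Tween-20, pH 7.4, for 1 hour at room temperature. Phosphorylation read by IMAP fluorescence polarization after adding binding solution; IC50 from four-parameter fit.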

[1] = Homo sapiens, 22Rv1, 72 h, read-out: IC50 (μM) (22Rvl)
[2] = Homo sapiens, A549, 72 h, read-out: IC50 (μM) (A549)
[3] = Homo sapiens, DU-4475, 72 h, read-out: IC50 (μM) (DU4475)
[4] = Homo sapiens, T47D, 72 h, read-out: IC50 (μM) (T47D)
[5] = Homo sapiens, HT1197, 72 h, read-out: IC50 (μM) (HTll97)
[6] = 22Rv1 cells, 72 hours, read-out: IC50 (μM) (22Rvl)
[7] = A549 cells, 72 hours, read-out: IC50 (μM) (A549)
[8] = DU4475 cells, 72 hours, read-out: IC50 (μM) (DU4475)
[9] = T47D cells, 72 hours, read-out: IC50 (μM) (T47D)
[10] = HT1197 cells (MELK-negative control), 72 hours, read-out: IC50 (μM) (HTll97)

Row | Compound | IC50 (22Rv1 cells; [1]) | IC50 (22Rv1 cells; Homo sapiens, 22Rv1, read-out: IC50, in vitro anti-proliferative assay) | IC50 (A549 cells; [2]) | IC50 (A549 cells; Homo sapiens, A549, read-out: IC50, in vitro anti-proliferative assay) | IC50 (DU4475 cells; [3]) | IC50 (DU4475 cells; Homo sapiens, DU-4475, read-out: IC50, in vitro anti-proliferative assay) | IC50 (T47D cells; [4]) | IC50 (T47D cells; Homo sapiens, T47D, read-out: IC50, in vitro anti-proliferative assay) | IC50 (HT1197 cells; [5]) | IC50 (HT1197 cells; Homo sapiens, HT1197, read-out: IC50, in vitro anti-proliferative assay) | Tumor growth inhibition (TGI) (MDA-MB-231 xenografts) | Tumor growth inhibition (TGI) (DU145 xenografts) | Tumor growth inhibition (TGI) (MIAPaCa-2 xenografts) | Tumor growth suppressive effect (PC-14 xenografts) | IC50 (MELK) | IC50 (22Rv1 cells; [6]) | IC50 (A549 cells; [7]) | IC50 (DU4475 cells; [8]) | IC50 (T47D cells; [9]) | IC50 (HT1197 cells; [10])
1 | CC(=O)c1cnc2ccc(-c3cc(Cl)c(O)c(Cl)c3)nc2c1N[C@H]1CC[C@H](CN(C)C)CC1 [Example 6, 1-{6-(3,5-Dichloro-4-hydroxyphenyl)-4-({trans-4-[(dimethylamino)methyl]cyclohexyl}amino)-1,5-naphthyridin-3-yl}ethanone dihydrochloride] | 0.0052 µM | 0.006 µM | 0.0089 µM | 0.0067 µM | 0.0033 µM | 0.0023 µM | 0.0053 µM | 0.0043 µM | 0.12 µM | 0.097 µM | 73% and 72% | 106% | 87% | no tumor growth suppressive effect | – | – | – | – | – | –
2 | CC(=O)c1cnc2ccc(-c3cc(Cl)c(O)c(Cl)c3)nc2c1N[C@H]1CC[C@H](CN2CC[C@@H](F)C2)CC1 [Example 209, 1-[6-(3,5-dichloro-4-hydroxyphenyl)-4-({4-[((R)-3-fluoropyrrolidin-1yl)methyl]cyclohexyl}amino)-1,5-naphthyridin-3-yl]ethanone dihydrochloride] | 0.032 µM | – | 0.037 µM | – | 0.01 µM | – | 0.036 µM | – | 0.12 µM | – | – | – | – | – | 0.002 µM | – | – | – | – | –
3 | N[C@H]1CCCN(c2ccc(Nc3c(C(=O)C4CCC4)cnc4ccc(-c5cc(F)c(O)c(Cl)c5)nc34)cn2)C1 [Example 210, (S)-(4-((6-(3-aminopiperidin-1-yl)pyridin-3-yl)amino)-6-(3-chloro-5-fluoro-4-hydroxyphenyl)-1,5-naphthyridin-3-yl)(cyclobutyl)methanone dihydrochloride] | 0.017 µM | – | 0.042 µM | – | 0.022 µM | – | 0.0093 µM | – | 1.4 µM | – | – | – | – | – | 0.0014 µM | – | – | – | – | –
4 | CN(C)C[C@H]1CC[C@H](Nc2c(C(=O)C3CCC3)cnc3ccc(-c4cc(Cl)c(O)c(Cl)c4)nc23)CC1 [Example 211, (6-(3,5-dichloro-4-hydroxyphenyl)-4-((4-[(dimethylamino)methyl{cyclohexyl)amino)-1,5-naphthyridin-3-yl) (cyclobutyl)methanone dihydrochloride] | 0.0072 µM | – | 0.0076 µM | – | 0.003 µM | – | 0.0034 µM | – | 0.0077 µM | – | – | – | – | – | 0.0027 µM | – | – | – | – | –
5 | CN(C)C[C@H]1CC[C@H](Nc2c(C(=O)C3CCC3)cnc3ccc(-c4cc(F)c(O)c(Cl)c4)nc23)CC1 [Example 212, (6-(3-chloro-5-fluoro-4-hydroxyphenyl)-4-((4-((dimethylamino)methyl)cyclohexyl)amino)-1,5-naphthyridin-3-yl)(cyclobutyl)methanone dihydrochloride] | 0.013 µM | – | 0.014 µM | – | 0.003 µM | – | 0.0074 µM | – | 0.014 µM | – | – | – | – | – | 0.0016 µM | – | – | – | – | –
6 | CCC(=O)c1cnc2ccc(-c3cc(Cl)c(O)c(Cl)c3)nc2c1Nc1ccc(N2CCC[C@@H](N)C2)nc1 [Example 214, (R)-1-(4-((6-(3-aminopiperidin-1-yl)pyridin-3-yl)amino)-6-(3,5-dichloro-4-hydroxyphenyl)-1,5-naphthyridin-3-yl)propan-1-one trihydrochloride] | 0.0059 µM | – | 0.013 µM | – | 0.004 µM | – | 0.0028 µM | – | 0.34 µM | – | – | – | – | – | 0.0013 µM | – | – | – | – | –
7 | (R)-1-(4-{[6-(3-aminopiperidin-1- yl)pyridin-3-yl]amino}-6-(3,5- dichloro-4-hydroxyphenyl)-1,5- naphthyridin-3-yl)-2-methylpropan-1- one trihydrochloride [Example 215] | – | – | – | – | – | – | – | – | – | – | – | – | – | – | 0.0065 µM | 0.032 µM | 0.083 µM | 0.014 µM | 0.016 µM | 1.7 µM
8 | (S)-(4-{[6-(3-aminopiperidin-1- yl)pyridin-3-yl]amino}-6-(3-chloro-5- fluoro-4-hydroxyphenyl)-1,5- naphthyridin-3- yl)(cyclobutyl)methanone [Example 213] | – | – | – | – | – | – | – | – | – | – | – | – | – | – | 0.0011 µM | 0.0071 µM | 0.029 µM | 0.003 µM | 0.0043 µM | 1.7 µM
